According to ChEMBL document CHEMBL6083231, “AANAT kinetics of CoASH-targeted electrophiles of tryptamine and related analogs” (Bioorg Med Chem Lett, 2024):

Experiments:
[1] = target: T1, Serotonin N-acetyltransferase (Homo sapiens, UniProt Q16613); test: Inhibition of AANAT (unknown origin)
[2] = target: T1, Serotonin N-acetyltransferase; test: Inhibition of human AANAT

T1 sequence (Q16613 whole entry): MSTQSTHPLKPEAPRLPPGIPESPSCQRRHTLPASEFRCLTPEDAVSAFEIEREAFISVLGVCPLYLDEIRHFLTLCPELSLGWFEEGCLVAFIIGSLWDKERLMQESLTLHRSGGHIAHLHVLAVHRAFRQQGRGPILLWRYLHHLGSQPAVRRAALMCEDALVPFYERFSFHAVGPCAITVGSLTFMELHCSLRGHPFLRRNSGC

| Compound | IC50 [1] [µM] | IC50 [2] [µM] |
| --- | --- | --- |
| O=C(CBr)NCCc1c[nH]c2ccccc12 | 0.5 | – |
| O=C(CCl)NCCc1c[nH]c2ccccc12 | 5.2 | – |
| C=CC(=O)NCCc1csc2ccc(OC)cc12 | – | 25 |
